Where two headings read alike, the source gives them in different places. Starred links: 1 amine or outer side, 2 acyl side, 3 side chain; linkers in the order of their positions; H or OH if unused. Positions of bridges follow the written chain, without caps; N, C: chain ends. Non-standard residues stand in square brackets, D forms with d. Residues, ends and D or L forms follow the SMILES beside them. Chains are numbered I, II in the order given. Actinocin(9to1) = Cc1c2oc3c(C)ccc(C(=O)[*:1])c3nc-2c(C(=O)[*:2])c(N)c1=O; NMeV = CN[C@H](C(=O)O)C(C)C; Sar = CNCC(=O)O
Assays:
[1] = tested on: P. falciparum strain HB3 gametocytes; assay: alamarBlue gametocyte viability assay, strain HB3; settings: for fold more potent against HB3 compared to 3D7: gametocytes
[2] = tested on: P. falciparum strain Dd2 gametocytes; assay: alamarBlue gametocyte viability assay, strain Dd2
HepG2 cells = assay: Cytotoxicity in mammalian HepG2 cell line; settings: for % Max response: HepG2; for Emax: HepG2, read-out: % Max response
[3] = tested on: P. falciparum strain 3D7 gametocytes; assay: alamarBlue gametocyte viability assay, strain 3D7
[4] = tested on: Asexual parasites of P. falciparum strain 3D7; assay: SYBR Green viability assay on asexual parasites; assay type: cell-based, Plasmodium falciparum; settings: read-out: IC50 in viability assay using asexual parasites
Plasmodium berghei ANKA = assay: Malaria mouse model of gametocyte transmission to mosquitoes (oocyst count); assay type: in vivo; settings: mice, Anopheles stephensi
Dd2 asexual parasites = settings: compared to 3D7; ref [27]; cited from earlier work
[5] = read-out: HB3-IC50, Table 3, 11 concentrations, 1:3 dilution, three times
[6] = read-out: Dd2-IC50, Table 3, 11 concentrations, 1:3 dilution, three times
[7] = Table 2, Inactive = no significant activity at highest tested concentration (46 μM)
[8] = Table 4, Inactive = no significant activity at highest tested concentration (46 μM)
[9] = read-out: 3D7-IC50, Table 3, 11 concentrations, 1:3 dilution, three times
[10] = read-out: Gametocyte IC50, mean of at least 3 independent experiments, P. falciparum 3D7 gametocyte
[11] = read-out: IC50 (μM) in HepG2, Table 2, Inactive = no significant activity at highest tested concentration (46 μM)
[12] = read-out: IC50 (μM) in HepG2 cells, Table 4, Inactive = no significant activity at highest tested concentration (46 μM)
[13] = Plasmodium falciparum, HB3, read-out: HB3-IC50
[14] = Homo sapiens, HepG2, read-out: IC50 (μM) in HepG2 cells
[15] = Plasmodium falciparum, 3D7, read-out: 3D7-IC50
[16] = Plasmodium falciparum, DD2, read-out: Dd2-IC50
[17] = Plasmodium falciparum, 3D7, read-out: Gametocyte IC50
[18] = Plasmodium falciparum, DD2, read-out: IC50 against Dd2 gametocytes
[19] = Plasmodium falciparum, HB3, read-out: IC50 against HB3 gametocytes
[20] = Plasmodium falciparum, HB3, read-out: HB3-IC50, Table 3, 11 concentrations, 1:3 dilution, three times
[21] = Homo sapiens, HepG2, read-out: IC50 (μM) in HepG2

Row | Molecule | IC50 [1, 5] [µM] | IC50 [2, 6] [µM] | % Max response (HepG2 cells; Table 2) [%] | % Max response (HepG2 cells; Table 4) [%] | IC50 [3, 9] [µM] | IC50 [3, 10] [µM] | further results
1 | CCN(CCO)CCCOc1ccc2c(Nc3cc(CC(=O)Nc4cccc(F)c4)[nH]n3)ncnc2c1 [AZD-1152-HQPA] | 1.48 | 1.48 | 11 | 11 | 0.743 | 0.743 | IC50 (μM) in HepG2 (HepG2 cells; [7]): Inactive; IC50 (μM) in HepG2 cells (HepG2 cells; [8]): Inactive
2 | CC(=O)OC[C@H]1O[C@@H]([S-])[C@H](OC(C)=O)[C@@H](OC(C)=O)[C@@H]1OC(C)=O.CCP(CC)CC.[Au+] [Auranofin] | 1.05 | 1.18 | −98 | −98 | 0.935 | 0.935 | IC50 (HepG2 cells; [11]): 9.35 µM; IC50 (HepG2 cells; [12]): 9.35 µM
3 | CC1(C)OC2=C(C(=O)c3ccccc3C2=O)[C@H](NCc2ccccc2)[C@@H]1O [CAY10581] | 0.662 | 2.35 | −86 | −86 | 0.743 | 0.743 | IC50 (HepG2 cells; [11]): 17.1 µM; IC50 (HepG2 cells; [12]): 17.1 µM
4 | C#Cc1cccc(Nc2ncnc3cc(OC)c(OCCCCCCC(=O)NO)cc23)c1 [CUDC-101] |  |  |  | −76 |  |  | IC50 [1, 13]: 0.152 µM; fold more potent against HB3 compared to 3D7 [1]: 5.5 fold; IC50 (HepG2 cells; [14]): 6.79 µM; IC50 [3, 15]: 0.8 µM
5 | CCN(CC)CCCC(C)Nc1ccnc2cc(Cl)ccc12 (stereo not drawn) [Chloroquine diphosphate] |  |  |  |  |  |  | IC50 [1, 13]: 0.935 µM; IC50 [2, 16]: 0.935 µM; IC50 [3, 15]: 0.2 µM
6 | Cc1cc(NC2CCCCC2)nc(-n2nc(C)cc2C)n1 [CyPPA] | 0.743 | 0.59 |  |  | 0.469 |  | 
7 | Cc1c2oc3c(C)ccc(C(=O)N[C@@H]4C(=O)N[C@H](C(C)C)C(=O)N5CCC[C@H]5C(=O)N(C)CC(=O)N(C)[C@@H](C(C)C)C(=O)O[C@@H]4C)c3nc-2c(C(=O)N[C@@H]2C(=O)N[C@H](C(C)C)C(=O)N3CCC[C@H]3C(=O)N(C)CC(=O)N(C)[C@@H](C(C)C)C(=O)O[C@@H]2C)c(N)c1=O [Dactinomycin] (I: T[dV]P[Sar][NMeV] / II: T[dV]P[Sar][NMeV]; ester I:1-I:C, II:1-II:C; linker I:N-II:N via Actinocin(9to1)) |  |  |  |  |  |  | IC50 [1, 13]: 0.019 µM; IC50 [2, 16]: 0.033 µM; Emax (HepG2 cells; Homo sapiens): 1%; IC50 (μM) in HepG2 (HepG2 cells; [7]): Inactive; IC50 (μM) in HepG2 cells (HepG2 cells; [8]): Inactive; IC50 [3, 17]: 0.015 µM
8 | S=C(SSC(=S)N1CCCCC1)N1CCCCC1 [Dicyclopentamethylenethiuram] | 0.743 | 0.743 |  |  | 0.2 |  | 
9 | COc1ncc(-c2ccc3nccc(-c4ccnnc4)c3c2)cc1NS(=O)(=O)c1ccc(F)cc1F [GSK-458] | 0.332 | 1.48 | 33 | 33 | 0.935 | 0.935 | IC50 (μM) in HepG2 (HepG2 cells; [7]): Inactive; IC50 (μM) in HepG2 cells (HepG2 cells; [8]): Inactive
10 | CN(C)c1ccc2nc3ccc(=[N+](C)C)cc-3sc2c1 [Methylene blue] |  |  |  | −20 |  |  | IC50 [1, 13]: 0.935 µM; IC50 ([2]; Plasmodium falciparum, DD2, read-out: Dd2-IC50, Table 3, 11 concentrations, 1:3 dilution, three times): 0.526 µM; IC50 [2, 18]: 0.526 µM; IC50 (μM) in HepG2 cells (HepG2 cells; [8]): Inactive; IC50 [3, 15]: 0.3 µM
11 | Cc1[nH]c2ccccc2c1CCNCc1ccc(/C=C/C(=O)NO)cc1 [Panobinostat] |  |  |  | −74 |  |  | IC50 [1, 19]: 0.118 µM; fold more potent against HB3 compared to 3D7 [1]: 7.9 fold; IC50 [2, 18]: 0.148 µM; times more potent against Dd2 compared to 3D7 ([2]; gametocytes): 6.3 times; IC50 (HepG2 cells; [14]): 0.372 µM; IC50 [3, 15]: 0.9 µM
12 | COc1cc(NC(C)CCCN)c2ncccc2c1 (stereo not drawn) [Primaquine diphosphate] |  |  |  |  |  |  | IC50 [1, 13]: 0.679 µM; IC50 [2, 16]: 1.08 µM
13 | COc1cc(NC(C)CCCN)c2ncccc2c1 (stereo not drawn) [Primaquine, primaquine] |  |  |  |  |  |  | IC50 [1, 19]: 0.68 µM; IC50 [2, 18]: 1.08 µM; IC50 (HepG2 cells; [14]): 17.8 µM
14 | C=CC1CN2CCC1CC2C(O)c1ccnc2ccc(OC)cc12.C=CC1CN2CCC1CC2C(O)c1ccnc2ccc(OC)cc12.O=S(=O)(O)O (stereo not drawn) [Quinine hemisulfate] | 0.235 | 0.083 | 2 | 2 | 0.3 | 0.345 | IC50 (μM) in HepG2 (HepG2 cells; [7]): Inactive; IC50 (μM) in HepG2 cells (HepG2 cells; [8]): Inactive
15 | C/C=C1\NC(=O)[C@H]2CSSCC/C=C/[C@H](CC(=O)N[C@H](C(C)C)C(=O)N2)OC(=O)[C@H](C(C)C)NC1=O [Romidepsin] |  |  |  |  |  |  | IC50 [1, 20]: 0.148 µM; Emax (HepG2 cells; Homo sapiens): -98%; IC50 (HepG2 cells; [21]): 0.074 µM; IC50 (HepG2 cells; [14]): 0.074 µM; IC50 [3, 15]: 0.2 µM; IC50 [3, 17]: 0.637 µM
16 | Cl.Cl.Cl.Cl.Cl.Cl.N.N.N.N.N.N.N.N.N.N.N.N.N.N.[O-2].[O-2].[Ru+3].[Ru+3].[Ru+4] [Ruthenium red] | 0.264 | 0.526 |  |  | 0.935 |  | 
17 | CC[C@@H](C(=O)[C@@H](C)[C@@H](O)[C@H](C)[C@@H]1O[C@@H]([C@@H](CC)C(=O)O)CC[C@@H]1C)[C@H]1O[C@]2(C=C[C@@H](O)[C@]3(CC[C@@](C)([C@H]4CC[C@](O)(CC)[C@H](C)O4)O3)O2)[C@H](C)C[C@@H]1C [Salinomycin monosodium] | 0.469 | 0.296 |  |  | 0.1 |  | 
18 | CC[C@@H](C(=O)[C@@H](C)[C@@H](O)[C@H](C)[C@@H]1O[C@@H]([C@@H](CC)C(=O)O)CC[C@@H]1C)[C@H]1O[C@]2(C=C[C@@H](O)[C@]3(CC[C@@](C)([C@H]4CC[C@](O)(CC)[C@H](C)O4)O3)O2)[C@H](C)C[C@@H]1C [Salinomycin sodium] |  |  |  |  |  |  | IC50 [1, 20]: 0.372 µM; Emax (HepG2 cells; Homo sapiens): -69%; IC50 (HepG2 cells; [21]): 29.6 µM; IC50 (HepG2 cells; [14]): 29.6 µM; IC50 [3, 15]: 0.1 µM; IC50 [3, 17]: 0.194 µM
19 | CCN(CC)C(=S)SSC(=S)N(CC)CC [Tetraethylthiuram disulfide] |  |  |  |  |  |  | IC50 [1, 13]: 0.148 µM; IC50 [2, 16]: 0.296 µM
20 | Nc1ccc(-c2ccc3ncc4ccc(=O)n(-c5cccc(C(F)(F)F)c5)c4c3c2)cn1 [Torin 2] | 0.015 | 0.012 | −46 | −46 |  | 0.008 | IC50 [4]: 0.00275 µM; cytotoxicity in HepG2 cells (HepG2 cells; at the highest tested concentration (46 μM)): partial cytotoxicity; IC50 (HepG2 cells; [11]): 9.35 µM; IC50 (HepG2 cells; [12]): 9.35 µM; oocyst production in mosquitoes (Plasmodium berghei ANKA; single 4 mg/kg dose i.v.): almost completely eliminated; oocyst production in mosquitoes (Plasmodium berghei ANKA; single dose of 2 mg/kg i.v.): significantly reduced; oocyst production in mosquitoes (Plasmodium berghei ANKA; two 4 mg/kg doses i.v.): completely blocked
21 | CCC(=O)N1CCN(c2ccc(-n3c(=O)ccc4cnc5ccc(-c6cnc7ccccc7c6)cc5c43)cc2C(F)(F)F)CC1 [Torin-1] | 3.72 | 5.26 |  |  | 6.62 |  | 
22 | CC1=C(CO)C(=O)O[C@@H]([C@@H](C)[C@H]2CC[C@H]3[C@@H]4C[C@H]5O[C@]56[C@@H](O)C=CC(=O)[C@]6(C)[C@H]4CC[C@]23C)C1 [Withaferin A] | 1.33 | 0.372 | −80 | −80 | 0.3 | 0.372 | IC50 (HepG2 cells; [11]): 9.35 µM; IC50 (HepG2 cells; [12]): 9.35 µM
23 | CCN(CC)CCCC(C)Nc1ccnc2cc(Cl)ccc12 (stereo not drawn) [chloroquine] |  |  |  |  |  |  | reduction of potency against Dd2 gametocytes compared to 3D7 [2]: 3.7 fold; fold less potent against Dd2 asexual parasites (Dd2 asexual parasites): 10 fold
24 | Monensin sodium | 0.264 | 0.372 | 40 | 40 | 0.2 | 0.254 | IC50 (μM) in HepG2 (HepG2 cells): Inactive; IC50 (μM) in HepG2 cells (HepG2 cells): Inactive
25 | Zinc pyrithione | 0.059 | 0.059 | −99 | −99 |  | 0.093 | IC50 (HepG2 cells; [11]): 2.15 µM; IC50 (HepG2 cells; [12]): 2.15 µM
